Results reported in ChEMBL document CHEMBL1149714 (2007).
≈ marks a conversion by molar mass, not a printed value.

How the values were obtained:
Format in all cases: functional
Pseudomonas aeruginosa [1] = assay: Antibacterial activity against Pseudomonas aeruginosa SR24 after 20 hrs by agar dilution method
Escherichia coli [2] = assay: Antibacterial activity against Toho 2 (ESBL) producing Escherichia coli SR-21003 after 20 hrs by agar dilution method
Haemophilus influenzae [3] = assay: Antibacterial activity against Haemophilus influenzae ATCC 49766 after 20 hrs by agar dilution method; details: ATCC 49766, 20 h
Haemophilus influenzae [4] = assay: Antibacterial activity against beta-lactamase negative ampicillin resistant Haemophilus influenzae SR-11435 after 20 hrs by agar dilution method
Streptococcus pneumoniae = assay: Antibacterial activity against penicillin resistant Streptococcus pneumoniae SR-16675 after 20 hrs by agar dilution method
Pseudomonas aeruginosa [5] = assay: Antibacterial activity against Pseudomonas aeruginosa SR-5393 after 20 hrs by agar dilution method
Pseudomonas aeruginosa [6] = assay: Antibacterial activity against AmpC hyperproducing Pseudomonas aeruginosa SR24-12 after 20 hrs by agar dilution method
Escherichia coli [7] = assay: Antibacterial activity against Escherichia coli NIHJJC2 after 20 hrs by agar dilution method
Enterobacter cloacae [8] = assay: Antibacterial activity against Enterobacter cloacae ATCC 13047 after 20 hrs by agar dilution method; details: ATCC 13047, 20 h
Moraxella catarrhalis = assay: Antibacterial activity against Moraxella catarrhalis ATCC 43617 after 20 hrs by agar dilution method; details: ATCC 43617, 20 h
Pseudomonas aeruginosa [9] = assay: Antibacterial activity against Imipenem resistant Pseudomonas aeruginosa SR-6554 after 20 hrs by agar dilution method
Staphylococcus aureus = assay: Antibacterial activity against […] Staphylococcus aureus SMITH after 20 hrs by agar dilution method
Enterobacter cloacae [10] = assay: Antibacterial activity against AmpC producing Enterobacter cloacae SR-4321 after 20 hrs by agar dilution method
Pseudomonas aeruginosa [11] = assay: Antibacterial activity against CAZ resistant Pseudomonas aeruginosa SR24-12 infected in mouse after 7 days; details: 168 h
Pseudomonas aeruginosa [12] = assay: Antibacterial activity against CAZ susceptible Pseudomonas aeruginosa SR24 infected in mouse after 7 days; details: 168 h

Structure (SMILES) | MIC (Pseudomonas aeruginosa [1]) | MIC (Escherichia coli [2]) | MIC (Haemophilus influenzae [3]) | MIC (Haemophilus influenzae [4]) | MIC (Streptococcus pneumoniae) | MIC (Pseudomonas aeruginosa [5]) | MIC (Pseudomonas aeruginosa [6]) | MIC (Escherichia coli [7]) | MIC (Enterobacter cloacae [8]) | MIC (Moraxella catarrhalis) | MIC (Pseudomonas aeruginosa [9]) | MIC (Staphylococcus aureus) | MIC (Enterobacter cloacae [10]) | ED50 (Pseudomonas aeruginosa [11]) | ED50 (Pseudomonas aeruginosa [12])
CNCCCn1ccc2c1ccc[n+]2CC1=C(C(=O)[O-])N2C(=O)[C@@H](NC(=O)/C(=N\O[C@@H](C)C(=O)O)c3nc(N)sc3Br)[C@H]2SC1 | 1 µg/mL (≈ 1.39 µM) | 4 µg/mL (≈ 5.54 µM) | 0.063 µg/mL (≈ 0.0873 µM) | 0.125 µg/mL (≈ 0.173 µM) | 4 µg/mL (≈ 5.54 µM) | 4 µg/mL (≈ 5.54 µM) | 4 µg/mL (≈ 5.54 µM) | 0.5 µg/mL (≈ 0.693 µM) | 1 µg/mL (≈ 1.39 µM) | 0.016 µg/mL (≈ 0.0222 µM) | 8 µg/mL (≈ 11.1 µM) | 1 µg/mL (≈ 1.39 µM) | 4 µg/mL (≈ 5.54 µM) |  | 
CO/N=C(\C(=O)N[C@@H]1C(=O)N2C(C(=O)[O-])=C(C[N+]3(C)CCCC3)CS[C@H]12)c1csc(N)n1 | 0.5 µg/mL (≈ 1.04 µM) | 4 µg/mL (≈ 8.32 µM) | 0.032 µg/mL (≈ 0.0666 µM) | 0.5 µg/mL (≈ 1.04 µM) | 2 µg/mL (≈ 4.16 µM) | 4 µg/mL (≈ 8.32 µM) | 32 µg/mL (≈ 66.6 µM) | 0.063 µg/mL (≈ 0.131 µM) |  | 0.5 µg/mL (≈ 1.04 µM) | 64 µg/mL (≈ 133 µM) | 2 µg/mL (≈ 4.16 µM) |  |  | 
CNCCCn1ccc2c1ccc[n+]2CC1=C(C(=O)[O-])N2C(=O)[C@@H](NC(=O)/C(=N\OC3(C(=O)O)CCC3)c3nc(N)sc3Cl)[C@H]2SC1 | 1 µg/mL (≈ 1.42 µM) | 4 µg/mL (≈ 5.69 µM) | 0.032 µg/mL (≈ 0.0455 µM) | 0.063 µg/mL (≈ 0.0896 µM) | 4 µg/mL (≈ 5.69 µM) | 4 µg/mL (≈ 5.69 µM) | 4 µg/mL (≈ 5.69 µM) | 1 µg/mL (≈ 1.42 µM) | 2 µg/mL (≈ 2.84 µM) | 0.016 µg/mL (≈ 0.0228 µM) | 16 µg/mL (≈ 22.8 µM) | 1 µg/mL (≈ 1.42 µM) | 4 µg/mL (≈ 5.69 µM) |  | 
CNCCCn1ccc2c1ccc[n+]2CC1=C(C(=O)[O-])N2C(=O)[C@@H](NC(=O)/C(=N\O[C@@H](C)C(=O)O)c3nc(N)sc3C)[C@H]2SC1 | 1 µg/mL (≈ 1.52 µM) | 32 µg/mL (≈ 48.7 µM) | 0.125 µg/mL (≈ 0.19 µM) | 2 µg/mL (≈ 3.05 µM) | 8 µg/mL (≈ 12.2 µM) | 4 µg/mL (≈ 6.09 µM) | 8 µg/mL (≈ 12.2 µM) | 2 µg/mL (≈ 3.05 µM) | 4 µg/mL (≈ 6.09 µM) | 0.5 µg/mL (≈ 0.761 µM) | 64 µg/mL (≈ 97.5 µM) | 4 µg/mL (≈ 6.09 µM) | 16 µg/mL (≈ 24.4 µM) |  | 
CNCCCn1ccc2c1ccc[n+]2CC1=C(C(=O)[O-])N2C(=O)[C@@H](NC(=O)/C(=N\O[C@@H](CO)C(=O)O)c3nc(N)sc3Cl)[C@H]2SC1 | 1 µg/mL (≈ 1.44 µM) | 2 µg/mL (≈ 2.89 µM) | 0.063 µg/mL (≈ 0.0909 µM) | 0.125 µg/mL (≈ 0.18 µM) | 8 µg/mL (≈ 11.5 µM) | 4 µg/mL (≈ 5.77 µM) | 4 µg/mL (≈ 5.77 µM) | 0.25 µg/mL (≈ 0.361 µM) | 0.25 µg/mL (≈ 0.361 µM) | 0.032 µg/mL (≈ 0.0462 µM) | 16 µg/mL (≈ 23.1 µM) | 2 µg/mL (≈ 2.89 µM) | 2 µg/mL (≈ 2.89 µM) |  | 
CNCCCn1ccc2c1ccc[n+]2CC1=C(C(=O)[O-])N2C(=O)[C@@H](NC(=O)/C(=N\O[C@H](C)C(=O)O)c3nc(N)sc3Cl)[C@H]2SC1 | 1 µg/mL (≈ 1.48 µM) | 4 µg/mL (≈ 5.91 µM) | 0.063 µg/mL (≈ 0.093 µM) | 0.25 µg/mL (≈ 0.369 µM) | 4 µg/mL (≈ 5.91 µM) | 4 µg/mL (≈ 5.91 µM) | 4 µg/mL (≈ 5.91 µM) | 0.5 µg/mL (≈ 0.738 µM) | 1 µg/mL (≈ 1.48 µM) | 0.032 µg/mL (≈ 0.0473 µM) | 16 µg/mL (≈ 23.6 µM) | 2 µg/mL (≈ 2.95 µM) | 4 µg/mL (≈ 5.91 µM) |  | 
CNCCCn1ccc2c1ccc[n+]2CC1=C(C(=O)[O-])N2C(=O)[C@@H](NC(=O)/C(=N\OC(C)(C)C(=O)O)c3nc(N)sc3Cl)[C@H]2SC1 | 2 µg/mL (≈ 2.89 µM) | 8 µg/mL (≈ 11.6 µM) | 0.032 µg/mL (≈ 0.0463 µM) | 0.063 µg/mL (≈ 0.0911 µM) | 4 µg/mL (≈ 5.79 µM) | 4 µg/mL (≈ 5.79 µM) | 8 µg/mL (≈ 11.6 µM) | 1 µg/mL (≈ 1.45 µM) | 2 µg/mL (≈ 2.89 µM) | 0.008 µg/mL (≈ 0.0116 µM) | 16 µg/mL (≈ 23.1 µM) | 2 µg/mL (≈ 2.89 µM) | 4 µg/mL (≈ 5.79 µM) |  | 
CC(C)(O/N=C(\C(=O)N[C@@H]1C(=O)N2C(C(=O)[O-])=C(C[n+]3ccccc3)CS[C@H]12)c1csc(N)n1)C(=O)O [CEFTAZIDIME] | 0.5 µg/mL (≈ 0.915 µM) | 1 µg/mL (≈ 1.83 µM) | 0.063 µg/mL (≈ 0.115 µM) | 0.125 µg/mL (≈ 0.229 µM) | 8 µg/mL (≈ 14.6 µM) | 2 µg/mL (≈ 3.66 µM) | 64 µg/mL (≈ 117 µM) | 0.25 µg/mL (≈ 0.457 µM) | 8 µg/mL (≈ 14.6 µM) | 0.063 µg/mL (≈ 0.115 µM) | 32 µg/mL (≈ 58.5 µM) | 8 µg/mL (≈ 14.6 µM) | 64 µg/mL (≈ 117 µM) | 127 mg/kg | 2.83 mg/kg
CNCCCn1ccc2c1ccc[n+]2CC1=C(C(=O)[O-])N2C(=O)[C@@H](NC(=O)/C(=N\O[C@@H](C)C(=O)O)c3nsc(N)n3)[C@H]2SC1 | 0.5 µg/mL (≈ 0.777 µM) | 8 µg/mL (≈ 12.4 µM) | 0.031 µg/mL (≈ 0.0482 µM) | 0.25 µg/mL (≈ 0.388 µM) | 4 µg/mL (≈ 6.21 µM) | 2 µg/mL (≈ 3.11 µM) | 16 µg/mL (≈ 24.9 µM) | 0.031 µg/mL (≈ 0.0482 µM) | 0.25 µg/mL (≈ 0.388 µM) | 0.5 µg/mL (≈ 0.777 µM) | 4 µg/mL (≈ 6.21 µM) | 2 µg/mL (≈ 3.11 µM) | 8 µg/mL (≈ 12.4 µM) |  | 
C=C(O/N=C(\C(=O)N[C@@H]1C(=O)N2C(C(=O)[O-])=C(C[n+]3cccc4c3ccn4CCCNC)CS[C@H]12)c1nc(N)sc1Cl)C(=O)O | 2 µg/mL (≈ 2.96 µM) | 1 µg/mL (≈ 1.48 µM) | 0.032 µg/mL (≈ 0.0474 µM) | 0.063 µg/mL (≈ 0.0933 µM) | 2 µg/mL (≈ 2.96 µM) | 8 µg/mL (≈ 11.8 µM) | 8 µg/mL (≈ 11.8 µM) | 0.25 µg/mL (≈ 0.37 µM) | 0.25 µg/mL (≈ 0.37 µM) | 0.016 µg/mL (≈ 0.0237 µM) | 32 µg/mL (≈ 47.4 µM) | 0.5 µg/mL (≈ 0.741 µM) | 1 µg/mL (≈ 1.48 µM) |  | 
